Measurements taken from patent US20230183207A1 (priority 2020, published 2023).

Columns and labels:
[1] = test system: SARS-CoV-2 strains JPN/TY/WK-521 and NCGM-nCoV-05-2N; experiment: microbe, parasite or virus in culture; assay type: cell-based; conditions: for IC50: Severe acute respiratory syndrome coronavirus 2, Vero C1008, read-out: IC50 against SARS-CoV-2
[2] = test system: SARS-CoV-2; assay type: cell-based

Row | SMILES | IC50 [1] [µM] | reasonable effects against SARS-CoV-2 in the assays [1] | other results
1 | C=CCn1ccc2c(C(=O)Oc3cncc(Cl)c3)cccc21 [GRL-0820S] | 15 ± 18 |  | blocking of infectivity, replication and cytopathic effect of SARS-CoV-2 [2]: significantly blocked the infectivity and replication; viral breakthrough [2]: viral breakthrough occurred
2 | O=C(Oc1cncc(Cl)c1)c1cccc2[nH]ccc12 [GRL-0920S] | 2.8 ± 0.3 |  | block of infectivity and cytopathic effect of SARS-CoV-2 (FIG. 1) [2]: virtually completely block the infectivity and cytopathic effect; blocking of infectivity, replication and cytopathic effect of SARS-CoV-2 [2]: completely blocked the infectivity, replication, and cytopathic effect
3 | NC(=O)c1nc(F)c[nH]c1=O [favipiravir] |  | none | 
4 | CCN(CCO)CCCC(C)Nc1ccnc2cc(Cl)ccc12 (centres unmarked) [hydroxychloroquine] |  | none | 
5 | Cc1cccc(C)c1OCC(=O)N[C@@H](Cc1ccccc1)[C@@H](O)C[C@H](Cc1ccccc1)NC(=O)[C@H](C(C)C)N1CCCNC1=O [lopinavir] |  | none | 
6 | N=C(N)c1ccc2cc(OC(=O)c3ccc(N=C(N)N)cc3)ccc2c1 [nafamostat] |  | none | 
7 | Cc1c(O)cccc1C(=O)N[C@@H](CSc1ccccc1)[C@H](O)CN1C[C@H]2CCCC[C@H]2C[C@H]1C(=O)NC(C)(C)C [nelfinavir] |  | none | 
8 | CC(=O)Oc1ccccc1C(=O)Nc1ncc([N+](=O)[O-])s1 [nitazoxanide] |  | none | 
9 | CCC(CC)COC(=O)[C@H](C)N[P@](=O)(OC[C@H]1O[C@@](C#N)(c2ccc3c(N)ncnn23)[C@H](O)[C@@H]1O)Oc1ccccc1 [remdesivir] | 2.6 ± 0.7 |  | 
10 | NC(=O)c1ncn([C@@H]2O[C@H](CO)[C@@H](O)[C@H]2O)n1 [ribavirin] |  | none | 
